{"source": "patent US20250319067A1", "about": "“Improved Pharmacokinetics of Tryptamine Prodrugs” (Reunion Neuroscience, Inc., priority 2023, published 2025)", "target": "human recombinant 5-HT2A receptors (Homo sapiens, UniProt P28223)", "sequence (P28223 whole entry)": "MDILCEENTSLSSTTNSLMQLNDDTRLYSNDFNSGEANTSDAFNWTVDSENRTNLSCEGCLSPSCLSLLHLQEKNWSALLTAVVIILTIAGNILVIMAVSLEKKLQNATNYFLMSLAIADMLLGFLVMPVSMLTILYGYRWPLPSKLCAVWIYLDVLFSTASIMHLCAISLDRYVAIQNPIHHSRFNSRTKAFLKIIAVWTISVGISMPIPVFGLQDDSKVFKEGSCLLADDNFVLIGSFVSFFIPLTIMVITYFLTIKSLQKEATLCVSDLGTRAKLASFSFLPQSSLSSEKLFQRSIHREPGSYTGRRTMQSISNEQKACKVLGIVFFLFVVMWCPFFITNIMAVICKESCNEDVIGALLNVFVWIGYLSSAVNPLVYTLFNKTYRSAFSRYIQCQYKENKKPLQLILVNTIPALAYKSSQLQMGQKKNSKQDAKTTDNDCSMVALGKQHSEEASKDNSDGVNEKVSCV", "experiment": "5-HT2A cellular agonist effect assay (IP1, HTRF)", "format": "cell-based", "set-up": "host or cells: HEK-293", "method": "Activation was calculated as a percentage of the response to the positive control (10 μM 5-HT).\nEC50 and IC50 values were determined by nonlinear regression analysis of the concentration-response curves generated with mean replicate values using Hill equation curve fitting. For all receptor pharmacology assays, data were analyzed with software developed at Cerep (Hill software, Celle-Lévescault, France) and validated by comparison with data generated by the commercial software SigmaPlot® 4.0 for Windows®(01997 by SPSS Inc).", "data": [{"compound": "CC(C)N(CCc1c[nH]c2cccc(OC(=O)CCCC(=O)O)c12)C(C)C", "note": "[RE104]", "values": [{"measurement": "EC50", "value": "> 30", "unit": "µM"}]}]}
